Data set [1] relates to TGF-β-induced fibronectin and Slug expression in HaCaT cells. Nature of the data set: Western blot for fibronectin and Slug in HaCaT cells with pathway inhibitors. The class given is cell-based, human.
The subject of data set [2] is TGF-β-induced EMT in HaCaT cells. Nature of the data set: Immunofluorescence of F-actin and E-cadherin in HaCaT cells with pathway inhibitors. The class given is cell-based, human. Particulars: 0.5 μM SB431542, 1 μM SB203580, 10 μM U0126.
Procedure: HaCaT cells transfected with control or CD109 siRNA were treated for 36 hrs with 100 pM TGF-β1, in the presence or absence of 0.5 μM SB431542, 1 μM SB203580 and/or 10 μM U0126. Cells were fixed and stained for F-actin, E-cadherin and with DAPI. […] (FIG. 16B) Densitometry of F-actin staining (mean of n=3 independent experiments±SEM; *P<0.05).
Cells were treated with 0-100 pM TGF-β1, in the presence or absence of 10 μM U0126 (Cell signaling Technologies), 1 μM SB203580, 0.5 μM SB431542 (both from Ascent) for 36-40 hrs. Cells were fixed with 4% paraformaldehyde for 10 min at 37° C. and non-specific sites were blocked with 10% NGS, 0.1% Triton X-100 in PBS. E-cadherin was detected using a FITC-conjugated anti-E-cadherin antibody (BD Biosciences), followed by an AlexaFluor488™-conjugated anti-FITC antibody (Molecular Probes). F-actin was detected using Rhodamin-conjugated phalloidin (Cytoskeleton, Denvers, Colo.) and nuclei were stained with DAPI (Sigma Aldrich). Images were acquired with an Olympus BX60 fluorescent microscope coupled to a QColor3™ camera (Olympus) using Image ProPlus™ 6.0 software.
The subject of data set [3] is TGF-β-induced migration of squamous cell carcinoma (A431) cells. The experiment in a line: Scratch (wound closure) migration assay, A431 cells. The class given is cell-based. Particulars: 10 nM peptide, 100 pM TGF-β1, 24 hours (FIG. 10). The method, then:
FIG. 10A and FIG. 10B illustrate that peptides B, E and X-1 inhibit TGF-β-induced cellular migration of A431 cells in vitro. Results are shown prior to treatment (0 hr, top panels) and after treatment (24 hr, bottom panels) for each of the peptides used. (See FIG. 2 and Table 1 for the amino acid sequence identity of the peptides).
A431 cells were grown to 80-90% confluence and serum-starved overnight. The next day, cells were scratched with a plastic pipette tip (time 0 hour) and then left untreated or treated for 24 hours with 100 pM TGF-β1 alone or in the presence of P16 as indicated. (FIG. 27A) Digital images were captured at 0 h and 24 h using an EVOS XL Core microscope. (FIG. 27B) Micrographs were subsequently quantitated to determine the percentage of the wound area that had closed following 24 hours in the presence or absence of P16, as indicated.
Cells were scratched with a pipette tip and treated without or with 100 pM TGF-b1 alone or in the presence of 10 nM Peptide A or Peptide A1 (C31S mutant). Pictures were taken at 0 and 24 hrs. Peptide A but not Peptide A1 inhibits TGF-b-induced migration in A431 cells. Peptide A contains monomeric and dimeric forms whereas Peptide A1 contains a C31S mutation to prevent intermolecular disulfide bond formation so that it forms monomers only.
(§1) Squamous cell carcinoma (A431) or breast cancer (MDA-MB-231) cells were grown to 80-90% confluence and serum-starved overnight. The next day, cells were scratched with a plastic pipette tip (time 0 hour) and then left untreated or treated for 24 hours with 100 pM TGF-β1 alone or in the presence of 10 nM peptide B (100 aa), E (67 aa), or X1 (P28, 28 aa). Digital images were captured at 0 h and 24 h (20× magnification) using an EVOS XL Core microscope.

A short description of data set [4]: Size-exclusion chromatography on Superdex Peptide 10/300GL column. Format: physicochemical. Particulars: for formation of aggregates by size-exclusion chromatography: peptide in PBS, Superdex Peptide 10/300GL, 0.6 ml/min; for Aggregation?: size-exclusion chromatography, peptide dissolved in PBS. The procedure: Approximately 200 μg of each peptide X (40 amino acids), X-1 (28 amino acids), peptide A (161 amino acids), P11 (11 amino acids), P16 (16 amino acids), P21 (21 amino acids, P16-2 (16 amino acids, scrambled sequence control), X-3 (16 amino acids) and X-4 (11 amino acids) were dissolved in phosphate-buffered saline (PBS) and loaded onto a Superdex Peptide 10/300GL column. The column was eluted with PBS at a flow rate of 0.6 mL/min and eluents were analyzed for peptide content by measuring relative absorbance at a wavelength of 215 nm. (FIGS. 3A and 3B) The data is plotted with relative absorbance (Y-axis) against elution volume (X-axis). Peptides 1-9 are color coded (A—peptides (1) to (5); B (peptides (6) to (9)). As shown on panel A, peptide X (peptide 1, black line) elution profile indicated two major peaks at approximately 8 mL and 11 mL which correspond to molecular weights greater than 12.4 kDa. The theoretical molecular weight of peptide X is 4.7 kDa which is expected to elute from the column at approximately 15 mL. Under the conditions tested, peptide X existed as high molecular weight aggregates with minimal soluble (monomeric) form. On the other hand, P16 (peptide 5, green line) elution profile indicated a broad peak between 14-22 mL which is expected to contain peptides of between 0.1 and 6 kDa and is consistent with its theoretical molecular weight of 2.01 kDa.
FIG. 4 illustrates the standard curve used for size-exclusion chromatography of standard peptides using the Superdex Peptide 10/300 GL column (results provided in FIG. 3). A pool of standard peptides of various molecular weights (1. cytochrome c (Mr 12.384 kDa) 1 mg/mL; 2. aprotinin (Mr 6.512 kDa) 2 mg/mL; 3. vitamin B12 (Mr 1.355 kDa) 0.1 mg/mL; 4. (Gly)3 (Mr 0.189 kDa) 0.1 mg/mL; 5. Gly (Mr 0.075 kDa) 7.8 mg/mL) were subjected to size-exclusion chromatography using the Superdex Peptide 10/300 GL column (flow rate 0.5 ml/min at room temperature, sample volume of 50 μL, eluent 0.05M phosphate, 0.15 M NaCl, ph 7.0). The resulting chromatogram (absorbance at 215 nm (in mAU, left Y axis) and conductivity (in mS/cm, right Y axis, in function of volume of elution (in mL)) indicates the elution profiles of the above peptides with high MW peptides eluting in earlier fractions and lower MW peptides eluting in later fractions as expected. The molecular weights of peptides were plotted against elution volume generating a standard curve (not shown).
More specifically, approximately […] of each peptide X (40 amino acids), X-1 (28 amino acids), peptide A (161 amino acids), P11 (11 amino acids), P16 (16 amino acids), P21 (21 amino acids, P16-2 (16 amino acids, scrambled sequence control), X-3 (16 amino acids) and X-4 (11 amino acids) were dissolved in phosphate-buffered saline (PBS) and loaded onto a Superdex Peptide 10/300GL column. The column was eluted with PBS at a flow rate of 0.6 ml/min and eluants were analyzed for peptide content by measuring relative absorbance at a wavelength of 215 nm. The data were plotted with relative absorbance (Y-axis) against elution volume (X-axis). […] The theoretical molecular weight of peptide X is 4.7 kDa which is expected to elute from the column at approximately 15 mL. […] P16 (peptide 5) elution profile indicated a peak between 14-22 mL which was expected to contain peptides of between 0.1 and 6 kDa and is consistent with its theoretical molecular weight of 2.01 kDa.
More specifically, a pool of standard proteins of various molecular weights were subjected to size-exclusion chromatography using the Superdex Peptide 10/300 GL column. The resulting chromatogram indicated the elution profiles of the peptides with high molecular weight peptides eluting in earlier fractions and lower molecular weight peptides eluting in later fractions as expected. The molecular weights of peptides were plotted against elution volume generating a standard curve (not shown) and was used to calculate molecular weights of the CD109-based peptides. […]
On the technique in general: Size exclusion chromatography separates by hydrodynamic size, large species first.

The subject of data set [5] is TGF-β-induced migration of breast cancer (MDA-MB-231) cells. Nature of the data set: Scratch migration assay, MDA-MB-231 cells. The class given is cell-based. Conditions: 10 nM peptide, 100 pM TGF-β1, 24 hours (FIG. 11). The procedure:
FIG. 11A and FIG. 11B illustrate that peptides B, E and X-1 inhibit TGF-β-induced cellular migration of MDA-MB-231 cells in vitro. Results are shown prior to treatment (0 hr, top panels) and after treatment (24 hr, bottom panels) for each of the peptides used.
as §1

For data set [6], the system named is TGF-β1-induced Smad3-driven (CAGA12-lux) transcriptional activity. Nature of the data set: Luciferase reporter assay in HEK293-(CAGA)12 cells. Format: cell-based. Conditions: 10 nM or 5 nM peptide, 100 pM TGF-β1, 18 hours (FIG. 5). For orientation: Reporter assays use an easily measured gene product as a stand-in for the process of interest.
The test system is the same in data set [7]. The experiment in a line: Luciferase reporter assay in HEK293-(CAGA)12 cells. The class given is cell-based. Conditions: 100 pM TGF-β1, 18 hours. The procedure:
FIGS. 5A and 5B illustrate that some small molecular weight CD109-based peptides (Peptide A, P28, P21 and […]) inhibit TGF-β1-induced Smad3-driven transcriptional activity. […] Cell lysates were analyzed for luciferase activity and data are expressed as mean±standard deviation of relative light units (RLU). […] Under the conditions tested, peptide A, P28, P21 and P16 inhibited TGF-β1-induced transcriptional (CAGA12-lux) activity.
FIG. 6 illustrates that the small molecular weight CD109-based peptide P16 (but not P16-2, P11 or X-4) inhibit TGF-β1-induced Smad3-driven transcriptional activity. HEK293 cells stably transfected with the Smad3-responsive CAGA12-lux luciferase reporter were treated for 18 hours without (−) or with (+) […] TGF-β1 in the presence or absence of 10 nM of P16-2 (16 aa scrambled control), P11 (11 aa sequence), P16 (16 aa), X-4 (11 aa) or Tris-buffer (buffer control) as indicated. Cell lysates were analyzed for luciferase activity and data are expressed as mean±standard deviation of luciferase activity. Results are shown as luciferase activity for the peptides used.
FIG. 8 illustrates that DMSO treatment enhances the TGF-β inhibitory activity of Peptide X but not P21 or P16. HEK293 cells stably transfected with the Smad3-responsive CAGA12-lux luciferase reporter were treated for 18 hours without (−) or with (+) 100 pM TGF-β1 in the presence or absence of Peptide X (PX), P21 or P16. The peptides were previously dissolved in Tris buffer and left untreated or treated with DMSO prior to addition to the cells. Addition of Tris buffer or DMSO alone served as additional controls. Cell lysates were analyzed for luciferase activity and data are expressed as mean±standard deviation of luciferase activity. Results are shown as luciferase activity. […] P16 and P21 inhibited TGF-β1-induced CAGA12-lux activity and these effects were not enhanced by DMSO treatment. […]
FIG. 25 is a graph showing the ability of CD109-based peptides to inhibit TGF-β-induced, Smad3-driven transcriptional activity. HEK293 cells stably transfected with the Smad3-responsive CAGA12-lux luciferase reporter were treated for 18 hours without (−) or with (+) 100 pM TGF-b1 in the presence or absence of 10 nM of P16, P16.2, peptide A, P15, P14, P13, P12, P11, peptide X, P21, or 2% NH4OH buffer (buffer control) as indicated. Cell lysates were analyzed for luciferase activity and data are expressed as mean±standard deviation of luciferase activity.
HEK293 cells stably transfected with the Smad3-responsive CAGA12-lux luciferase reporter construct were incubated with dimeric or monomeric forms of peptide A as indicated and treated with 100 pM TGF-b overnight. Cell lysates were analyzed for luciferase activity. Data are presented as fold-activation compared to TGF-b1 treatment alone (scaled to 1.0). M+D, mixture of monomer and dimer.
Luciferase reporter assays were performed using a HEK293-(CAGA)12 cell line that stably expresses a TGF-β/Smad3-responsive (CAGA)12-luciferase reporter gene [Cash et al. 2013]. HEK293-(CAGA)12 cells were grown in 24-well plates to 70-80% confluency and serum-starved overnight. Cells were washed with PBS and treated with or without TGF-β1 in presence or absence of various CD109-based peptides as indicated in the figure legends. Cells were then washed twice with cold PBS and solubilized in 100 μl of Passive Lysis Buffer (Promega) for 30 min at 4° C. The cell lysates were assayed for luciferase and β-galactosidase activities using commercially available kits (BD Biosciences).
HEK293 cells stably transfected with the Smad3-responsive CAGA12-lux luciferase reporter were treated for 18 hours without (−) or with (+) 100 pM TGF-β1 in the presence or absence of 10 nM (FIG. 5A) or 5 nM (FIG. 5B) of peptide A (Pep A, 161 aa), P28 (28 aa peptide), P21 (21 aa peptide), P16 (16 aa peptide), P16.2 scrambled peptide (16 aa, scrambled P16 sequence) or Tris-buffer (negative control for peptides) as indicated. […]

Regarding `C[S+]([O-])c1ccc(-c2nc(-c3ccncc3)c(-c3ccc(F)cc3)[nH]2)cc1` (stereo not drawn) [SB203580], the fibronectin production entry in data set [1] (CD109 siRNA HaCaT cells, 100 pM TGF-β1, 16 hrs, 0.5 μM SB431542, 1 μM SB203580, 10 μM U0126) is listed as “reduced”. The Slug expression entry in data set [1] (control siRNA and CD109 siRNA HaCaT cells, absence or presence of TGF-β, 1 μM SB203580) is “increases”. Further, the “effect mediated by CD109 siRNA transfection on actin stress fibers appearance and relocalization of E-cadherin” value in data set [2] (100 pM TGF-β1, 36 hrs) is “reduces (but does not abrogate)”. In addition, the “effect on EMT markers in the absence of TGF-β” value in data set [2] (data not shown) was “no effect”.

Consider “ETWIWLDTNMGSRIYQEFEVTVPDSITS (Peptide X-1)”, for which, in data set [3], the “inhibition of TGF-β-induced cellular migration of A431 cells” value (“inhibition … of A431 cells” for short) is given as “inhibit”. Also, in data set [4], the “formation of aggregates by size-exclusion chromatography” value is recorded as “formed aggregates” and the “Aggregation?” value was “Aggregated”. The “inhibition of TGF-β-induced cellular migration of MDA-MB-231 cells” value (shortened to “inhibition … of MDA-MB-231 cells”) in data set [5] is given as “inhibit”. Moreover, the “inhibition of TGF-β1-induced CAGA12-lux activity” value in data set [6] is given as “inhibited”.

As to ETWIWLDTNMGSRIYQEFEVT [Peptide P21], in data set [4], the “formation of aggregates by size-exclusion chromatography” value is “did not” and the “Aggregation?” value is listed as “Not aggregated”. Besides, the “inhibition of TGF-β1-induced CAGA12-lux activity, peptide pre-treated with DMSO” value in data set [7] (0.5% DMSO pre-treatment (FIG. 8)) was “not enhanced”. Besides, the “inhibition of TGF-β1-induced CAGA12-lux activity, peptide in Tris buffer left untreated” value in data set [7] (no DMSO (FIG. 8)) is “inhibited”. Further, the “inhibition of TGF-β1-induced CAGA12-lux activity” value in data set [6] is given as “inhibited”.

B1: B: CD109-based peptide (100 aa), SEQ ID NO: 19 (protein)
chain: TMENVVHELELYNTGYYLGMFMNSFAVFQECGLWVLTDANLTKDYIDGVYDNAEYAERFMEENEGHIVDIHDFSLGSSPHVRKHFPETWIWLDTNMGSRIYQEFEVT
modifications: Peptide B
In the case of B1, the “inhibition … of A431 cells” value in data set [3] is “inhibit”. The “inhibition … of MDA-MB-231 cells” value in data set [5] was “inhibit”.

B2: E: CD109-based peptide (67 aa), SEQ ID NO: 20 (protein)
chain: LTKDYIDGVYDNAEYAERFMEENEGHIVDIHDFSLGSSPHVRKHFPETWIWLDTNMGSRIYQEFEVTV
modifications: Peptide E
B2: the “inhibition … of A431 cells” value in data set [3] was “inhibit”. Further, the “inhibition … of MDA-MB-231 cells” value in data set [5] is listed as “inhibit”.
